Read-outs that look alike come from different tables or passages of the source.

For one test, the target named is T1, NAMPT (Homo sapiens, UniProt P43490).
T1 construct: His tag; host or cells: E. coli
The test is described as follows: Biochemical inhibition assay: NAMPT enzymatic reaction, NMN quantified by mass spectrometry. The note with it: NAMPT enzymatic reaction; read-out: Biochem IC50. The essentials:
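Inhibition of E. coli-expressed His-tagged human NAMPT, measured as NMN formation by mass spectrometry after a 30 min room-temperature reaction containing 1 μM NAM, 100 μM PRPP and 2.5 mM ATP.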

In a further test the test system is A2780 cells. The test is described as follows: In-vitro cell proliferation assay (SRB), A2780 cells. The note with it: Homo sapiens, A2780, 72 h, A2780 cells, 72 hours, read-out: A2780 IC50. In kind it is cell-based. The essentials: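 Viable cells measured by SRB staining after 6% TCA fixation, absorbance 570 nm. Media-only background subtracted; % inhibition derived at two compound concentrations.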

T1 sequence (P43490 whole entry): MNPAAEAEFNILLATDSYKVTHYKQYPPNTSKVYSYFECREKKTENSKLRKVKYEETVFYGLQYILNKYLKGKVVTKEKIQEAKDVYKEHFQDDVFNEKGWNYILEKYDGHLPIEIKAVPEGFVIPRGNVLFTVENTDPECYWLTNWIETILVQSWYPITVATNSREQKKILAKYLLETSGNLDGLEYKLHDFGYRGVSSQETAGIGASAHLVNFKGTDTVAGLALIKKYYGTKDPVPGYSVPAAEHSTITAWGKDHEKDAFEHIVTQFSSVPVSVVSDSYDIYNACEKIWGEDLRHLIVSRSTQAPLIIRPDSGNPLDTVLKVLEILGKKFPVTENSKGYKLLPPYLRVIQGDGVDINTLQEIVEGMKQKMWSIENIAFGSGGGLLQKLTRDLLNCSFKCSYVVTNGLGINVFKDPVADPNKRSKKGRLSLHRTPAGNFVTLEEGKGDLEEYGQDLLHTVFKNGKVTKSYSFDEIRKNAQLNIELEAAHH

In general, IC50 refers to the point on the concentration scale where inhibition reaches its midpoint. For `CC(=O)c1ccccc1S(=O)(=O)c1ccc(CNC(=O)c2cc3cnccc3[nH]2)cc1` [N-({4-[(2-acetylbenzene)sulfonyl]phenyl}methyl)-1H-pyrrolo[3,2-c]pyridine-2-carboxamide], the IC50 on NAMPT was found to be 6 nM; with A2780 cells (SRB assay), 4 nM.
`CC(=O)c1ccccc1S(=O)(=O)c1ccc(CNC(=O)c2cc3ccncc3o2)cc1` [N-({4-[(2-acetylbenzene)sulfonyl]phenyl}methyl)furo[2,3-c]pyridine-2-carboxamide]: the results for the IC50 at NAMPT and in the test with A2780 cells (SRB) were 5.7 nM and 6.5 nM, respectively.
For `CC(=O)c1ccccc1S(=O)(=O)c1ccc(CNC(=O)c2cc3ccncc3s2)cc1` [N-({4-[(2-acetylbenzene)sulfonyl]phenyl}methyl)thieno[2,3-c]pyridine-2-carboxamide], the IC50 on NAMPT and with A2780 cells (SRB assay) was 1 nM in each case.
In the case of `CC(=O)c1ccccc1NS(=O)(=O)c1ccc(CNC(=O)c2cc3cnccc3[nH]2)cc1` [N-({4-[(2-acetylphenyl)sulfamoyl]phenyl}methyl)-1H-pyrrolo[3,2-c]pyridine-2-carboxamide], the IC50 on NAMPT and with A2780 cells (SRB assay) was 5 nM in each case.
As to `CCCCOc1cc(F)ccc1S(=O)(=O)c1ccc(CNC(=O)c2cnc3[nH]ncc3c2)cc1` [N-({4-[(2-butoxy-4-fluorobenzene)sulfonyl]phenyl}methyl)-1H-pyrazolo[3,4-b]pyridine-5-carboxamide], the half-maximal inhibitory concentration (IC50) at NAMPT is 176 nM; with A2780 cells (SRB) it was 100 to 1000 nM.
Regarding `CCCCOc1ccc(Cl)cc1S(=O)(=O)c1ccc(CNC(=O)c2cnc3[nH]ncc3c2)cc1` [N-({4-[(2-butoxy-5-chlorobenzene)sulfonyl]phenyl}methyl)-1H-pyrazolo[3,4-b]pyridine-5-carboxamide], the values for the IC50 at NAMPT and in the test with A2780 cells (SRB) were 117 nM and 73.7 nM, respectively.
As to `COc1ccc(S(=O)(=O)c2ccc(CNC(=O)c3cnc4[nH]ncc4c3)cc2)c(Cl)c1` [N-({4-[(2-chloro-4-methoxybenzene)sulfonyl]phenyl}methyl)-1H-pyrazolo[3,4-b]pyridine-5-carboxamide], the half-maximal inhibitory concentration (IC50) at NAMPT came out at 51.6 nM; in the test on A2780 cells (SRB), 87.7 nM.
For the compound `Cc1ccc(S(=O)(=O)c2ccc(CNC(=O)c3cnc4[nH]ncc4c3)cc2)c(Cl)c1` [N-({4-[(2-chloro-4-methylbenzene)sulfonyl]phenyl}methyl)-1H-pyrazolo[3,4-b]pyridine-5-carboxamide], the IC50 at NAMPT was 5 nM; in the test with A2780 cells (SRB), 2.78 nM.
For `COc1ccc(Cl)c(S(=O)(=O)c2ccc(CNC(=O)c3cnc4[nH]ncc4c3)cc2)c1` [N-({4-[(2-chloro-5-methoxybenzene)sulfonyl]phenyl}methyl)-1H-pyrazolo[3,4-b]pyridine-5-carboxamide] the same measures were 24.7 nM and 66.8 nM.
For the compound `COc1cccc(Cl)c1S(=O)(=O)c1ccc(CNC(=O)c2cc3cnccc3[nH]2)cc1` [N-({4-[(2-chloro-6-methoxybenzene)sulfonyl]phenyl}methyl)-1H-pyrrolo[3,2-c]pyridine-2-carboxamide], the concentration for half-maximal inhibition (IC50) at NAMPT was 13 nM; in the test on A2780 cells (SRB assay), 3 nM.
Regarding `COc1cccc(Cl)c1S(=O)(=O)c1ccc(CNC(=O)c2ccc3nccn3c2)cc1` [N-({4-[(2-chloro-6-methoxybenzene)sulfonyl]phenyl}methyl)imidazo[1,2-a]pyridine-6-carboxamide], the 50% inhibitory concentration (IC50) on NAMPT turned out to be 20.2 nM; in the test on A2780 cells (SRB) it was 25.8 nM.
On to `O=C(NCc1ccc(S(=O)(=O)c2ccccc2Cl)cc1)c1cnc2[nH]ncc2c1` [N-({4-[(2-chlorobenzene)sulfonyl]phenyl}methyl)-1H-pyrazolo[3,4-b]pyridine-5-carboxamide], for which the IC50 on NAMPT was 92.5 nM; with A2780 cells (SRB) it was 100 to 1000 nM.
As for `O=C(NCc1ccc(S(=O)(=O)c2ccccc2Cl)cc1)c1cc2cnccc2[nH]1` [N-({4-[(2-chlorobenzene)sulfonyl]phenyl}methyl)-1H-pyrrolo[3,2-c]pyridine-2-carboxamide], the IC50 came out at 6 nM at NAMPT and 117 nM with A2780 cells (SRB assay).
Consider `O=C(NCc1ccc(S(=O)(=O)c2ccccc2Cl)cc1)c1ccc2nccn2c1` [N-({4-[(2-chlorobenzene)sulfonyl]phenyl}methyl)imidazo[1,2-a]pyridine-6-carboxamide], for which the results for the concentration for half-maximal inhibition (IC50) at NAMPT and in the test with A2780 cells (SRB) were 24.1 nM and 56.7 nM, respectively.
For `N#Cc1ccccc1S(=O)(=O)c1ccc(CNC(=O)c2cnc3[nH]ncc3c2)cc1` [N-({4-[(2-cyanobenzene)sulfonyl]phenyl}methyl)-1H-pyrazolo[3,4-b]pyridine-5-carboxamide] the same measures were 131 nM and 100 to 1000 nM.
For `N#Cc1ccccc1S(=O)(=O)c1ccc(CNC(=O)c2cc3cnccc3[nH]2)cc1` [N-({4-[(2-cyanobenzene)sulfonyl]phenyl}methyl)-1H-pyrrolo[3,2-c]pyridine-2-carboxamide] the same measures were 25.3 nM and 62.9 nM.
`N#Cc1ccccc1S(=O)(=O)c1ccc(CNC(=O)c2cc3ccncc3o2)cc1` [N-({4-[(2-cyanobenzene)sulfonyl]phenyl}methyl)furo[2,3-c]pyridine-2-carboxamide]: the concentration for half-maximal inhibition (IC50) at NAMPT was 24.6 nM; in the test on A2780 cells (SRB) it was 63.5 nM.
For `N#Cc1ccccc1S(=O)(=O)c1ccc(CNC(=O)c2cc3ccncc3s2)cc1` [N-({4-[(2-cyanobenzene)sulfonyl]phenyl}methyl)thieno[2,3-c]pyridine-2-carboxamide] the same measures were 14.6 nM and 67.6 nM.
For `CCOc1cc(F)ccc1S(=O)(=O)c1ccc(CNC(=O)c2cc3cnccc3[nH]2)cc1` [N-({4-[(2-ethoxy-4-fluorobenzene)sulfonyl]phenyl}methyl)-1H-pyrrolo[3,2-c]pyridine-2-carboxamide], in that order: 3.4 nM and 1.8 nM.
For the compound `CCOc1cccc(F)c1S(=O)(=O)c1ccc(CNC(=O)c2cc3ccncc3o2)cc1` [N-({4-[(2-ethoxy-6-fluorobenzene)sulfonyl]phenyl}methyl)furo[2,3-c]pyridine-2-carboxamide], the half-inhibitory concentration (IC50) at NAMPT came to 17 nM; in the test with A2780 cells (SRB) it was 28.3 nM.
On to `CCOc1ccccc1S(=O)(=O)c1ccc(CNC(=O)c2cc3cnccc3[nH]2)cc1` [N-({4-[(2-ethoxybenzene)sulfonyl]phenyl}methyl)-1H-pyrrolo[3,2-c]pyridine-2-carboxamide], for which the half-maximal inhibitory concentration (IC50) was 11 nM at NAMPT and 2 nM in the test with A2780 cells (SRB assay).
Turning to `CCOc1ccccc1S(=O)(=O)c1ccc(CNC(=O)c2cc3ccncc3o2)cc1` [N-({4-[(2-ethoxybenzene)sulfonyl]phenyl}methyl)furo[2,3-c]pyridine-2-carboxamide], the IC50 is 65.9 nM at NAMPT and 6 nM in the test on A2780 cells (SRB).
Regarding `CCOc1ccccc1S(=O)(=O)c1ccc(CNC(=O)c2ccc3nccn3c2)cc1` [N-({4-[(2-ethoxybenzene)sulfonyl]phenyl}methyl)imidazo[1,2-a]pyridine-6-carboxamide], the IC50 on NAMPT came to 20.3 nM; in the test on A2780 cells (SRB), 3.39 nM.
Consider `CCOc1ccccc1S(=O)(=O)c1ccc(CNC(=O)c2cc3ccncc3s2)cc1` [N-({4-[(2-ethoxybenzene)sulfonyl]phenyl}methyl)thieno[2,3-c]pyridine-2-carboxamide], for which the half-inhibitory concentration (IC50) at NAMPT was found to be 2 nM; in the test on A2780 cells (SRB assay), 0.8 nM.
For the compound `CCc1ccccc1S(=O)(=O)c1ccc(CNC(=O)c2cnc3[nH]ncc3c2)cc1` [N-({4-[(2-ethylbenzene)sulfonyl]phenyl}methyl)-1H-pyrazolo[3,4-b]pyridine-5-carboxamide], the 50% inhibitory concentration (IC50) on NAMPT amounted to 8.4 nM; with A2780 cells (SRB), 13 nM.
Turning to `CCc1ccccc1S(=O)(=O)c1ccc(CNC(=O)c2cc3cnccc3[nH]2)cc1` [N-({4-[(2-ethylbenzene)sulfonyl]phenyl}methyl)-1H-pyrrolo[3,2-c]pyridine-2-carboxamide], the IC50 amounted to 5 nM at NAMPT and 3 nM in the test on A2780 cells (SRB assay).
On to `CCc1ccccc1S(=O)(=O)c1ccc(CNC(=O)c2cc3ccncc3o2)cc1` [N-({4-[(2-ethylbenzene)sulfonyl]phenyl}methyl)furo[2,3-c]pyridine-2-carboxamide], for which the IC50 is 5.4 nM on NAMPT and 12.9 nM in the test on A2780 cells (SRB).
As for `CCc1ccccc1S(=O)(=O)c1ccc(CNC(=O)c2ccc3nccn3c2)cc1` [N-({4-[(2-ethylbenzene)sulfonyl]phenyl}methyl)imidazo[1,2-a]pyridine-6-carboxamide], the 50% inhibitory concentration (IC50) on NAMPT was 30.2 nM; in the test on A2780 cells (SRB), 12.9 nM.
As to `CCc1ccccc1S(=O)(=O)c1ccc(CNC(=O)c2cc3ccncc3s2)cc1` [N-({4-[(2-ethylbenzene)sulfonyl]phenyl}methyl)thieno[2,3-c]pyridine-2-carboxamide], the half-maximal inhibitory concentration (IC50) was found to be 5 nM on NAMPT and 2.9 nM in the test on A2780 cells (SRB assay).
Regarding `COc1cccc(S(=O)(=O)c2ccc(CNC(=O)c3cc4cnccc4[nH]3)cc2)c1F` [N-({4-[(2-fluoro-3-methoxybenzene)sulfonyl]phenyl}methyl)-1H-pyrrolo[3,2-c]pyridine-2-carboxamide], the figures for the half-inhibitory concentration (IC50) on NAMPT and with A2780 cells (SRB assay) were 10 nM and 7 nM, respectively.
`COc1cccc(S(=O)(=O)c2ccc(CNC(=O)c3ccc4nccn4c3)cc2)c1F` [N-({4-[(2-fluoro-3-methoxybenzene)sulfonyl]phenyl}methyl)imidazo[1,2-a]pyridine-6-carboxamide]: the IC50 worked out at 33 nM on NAMPT and 13.5 nM in the test on A2780 cells (SRB).
For `Cc1cccc(S(=O)(=O)c2ccc(CNC(=O)c3cc4ccncc4o3)cc2)c1F` [N-({4-[(2-fluoro-3-methylbenzene)sulfonyl]phenyl}methyl)furo[2,3-c]pyridine-2-carboxamide], in that order: 6.3 nM and 7.9 nM.
For `COc1ccc(S(=O)(=O)c2ccc(CNC(=O)c3ccc4nccn4c3)cc2)c(F)c1` [N-({4-[(2-fluoro-4-methoxybenzene)sulfonyl]phenyl}methyl)imidazo[1,2-a]pyridine-6-carboxamide], in that order: 41.3 nM and 22.9 nM.

The values are drawn from patent US12336981B2, “Compounds and compositions for the inhibition of NAMPT” (Valo Health, Inc., priority 2010, dated 2025).
